# Reference: patent US10385103B2, “Cell-permeable (ICP)-SOCS3 recombinant protein and uses thereof” (CELLIVERY THERAPEUTICS, INC., priority 2014, dated 2019)
# Tested on: RAW 264.7 cells
# Assay: Quantitative cell-permeability of FITC-labeled aMTD- or rPeptide-fused CRA recombinant proteins (flow cytometry)
# Type: cell-based
# Conditions: for Relative Ratio to aMTD AVE: cell-permeability of rPeptide-fused CRA recombinant protein relative to average of 240 aMTDs
# Description: The aMTDs and rPeptides were fluorescently labeled and compared based on the critical factors for cell-permeability by using flow cytometry and confocal laser scanning microscopy (FIGS. 5 to 8). The cellular uptake of the peptide-fused non-functional cargo recombinant proteins could quantitatively be evaluated in flow cytometry, while confocal laser scanning microscopy allows intracellular uptake to be assessed visually. The analysis included recombinant proteins fused to a negative control [rP38] that has opposite characteristics (hydrophilic and aromatic sequence: […] NO: 952)) to the aMTDs (hydrophobic and aliphatic sequences). Relative cell-permeability (relative fold) of aMTDs to the negative control was also analyzed (Table 23 and FIG. 9). […] RAW 264.7 cells were treated with 10 μM FITC-labeled recombinant proteins for 1 hour at 37° C., washed three times with cold PBS, treated with 0.25% tripsin/EDTA (Sigma-Aldrich, St. Louis, Mo.) for 20 minutes at 37° C. to remove cell-surface bound proteins. Cell-permeability of these recombinant proteins were analyzed by flow cytometry (Guava, Millipore, Darmstadt, Germany) using the FlowJo cytometric analysis software (FIGS. 5 to 6).
# [1] = cell-permeability of aMTD-fused CRA recombinant protein relative to negative control (A: rP38)
# [2] = cell-permeability of aMTD-fused CRA recombinant protein relative to reference CPP (B: MTM12)
# [3] = cell-permeability of aMTD-fused CRA recombinant protein relative to reference CPP (C: MTD85)
# [4] = 10 μM FITC-labeled, 1 hour, 37° C., RAW 264.7 cells
# [5] = cell-permeability relative to negative control rP38 (A type), aMTD-fused CRA recombinant protein, 10 μM FITC-labeled, 1 hour, 37° C., RAW 264.7 cells
# [6] = cell-permeability relative to reference CPP MTD85 (C type), aMTD-fused CRA recombinant protein, 10 μM FITC-labeled, 1 hour, 37° C., RAW 264.7 cells
# [7] = cell-permeability relative to reference CPP MTM12 (B type), aMTD-fused CRA recombinant protein, 10 μM FITC-labeled, 1 hour, 37° C., RAW 264.7 cells
Substance,Relative Ratio (Fold) A [1] [Fold],Relative Ratio (Fold) B [2] [Fold],Relative Ratio (Fold) C [3] [Fold],other results
222 (ALLIAPAAVIAP; Amino acid Sequence of aMTD222) [compound 222],32.6,21.7,11.0,–
241 (AAAVVPVLLVAP; Amino acid Sequence of aMTD241) [compound 241],16.6,11.0,5.6,Relative Ratio to aMTD AVE [4]: 0.33
444 (LAAALVPVALVP; Amino acid Sequence of aMTD444) [compound 444],8.1,5.4,2.7,–
824 (LIIVAAAPAVAP; Amino acid Sequence of aMTD824) [compound 824],32.8,21.9,11.1,–
525 (ALAIVVAPVAVP; Amino acid Sequence of aMTD525) [compound 525],13.8,9.2,4.7,–
921 (IWWFVVLPLVVP; Amino acid Sequence of rPeptide ID 921) [compound 921],–,–,–,Relative Ratio to aMTD AVE [4]: 0.14; Relative Ratio (Fold) A (relative cell-permeability of rPeptide vs reference A (not defined)): 2.8 Fold; Relative Ratio (Fold) B (relative cell-permeability of rPeptide vs reference CPP B: MTM12): 1.9 Fold; Relative Ratio (Fold) C (relative cell-permeability of rPeptide vs reference CPP C: MTD85): 0.9 Fold
391 (VVAIVLPAVAAP; Amino acid Sequence of aMTD381) [compound 391],11.5,7.7,3.9,–
867 (ALLVVIAPLAAP; Amino acid Sequence of aMTD867) [compound 867],13.2,8.8,4.4,–
485 (AILAAIVPLAVP; Amino acid Sequence of aMTD485) [compound 485],–,–,–,Relative Ratio (Fold) A [5]: 6.8 Fold; Relative Ratio (Fold) C [6]: 2.3 Fold; Relative Ratio (Fold) B [7]: 4.5 Fold
161 (AVIALPALIAAP; Amino acid Sequence of aMTD161) [compound 161],34.5,23.0,11.6,–
881 (AALIVVPAVAVP; Amino acid Sequence of aMTD881) [compound 881],12.7,8.5,4.3,–
803 (AIALAVPVLALP; Amino acid Sequence of aMTD803) [compound 803],74.7,50.0,25.3,–
25 (IVAVAPALVALP; Amino acid Sequence of aMTD25) [compound 25],–,–,–,Relative Ratio (Fold) A [5]: 2.4 Fold; Relative Ratio (Fold) C [6]: 0.8 Fold; Relative Ratio (Fold) B [7]: 1.6 Fold
686 (AALVAVLPVALP; Amino acid Sequence of aMTD686) [compound 686],19.5,13.1,6.6,–
875 (AIAIVVPAVAVP; Amino acid Sequence of aMTD875) [compound 875],13.8,9.2,4.7,–
825 (IVAVIVAPAVAP; Amino acid Sequence of aMTD825) [compound 825],69.7,46.6,23.5,–
282 (VLAVAPALIVAP; Amino acid Sequence of aMTD282) [compound 282],11.8,7.9,4.0,–
18 (NYCCTPTTNGQS; Amino acid Sequence of rPeptide ID 18) [compound 18],–,–,–,Relative Ratio to aMTD AVE [4]: 0.10
767 (IVVAAVVPALAP; Amino acid Sequence of aMTD767) [compound 767],8.5,5.0,2.9,–
281 (ALIVLPAAVAVP; Amino acid Sequence of aMTD281) [compound 281],13.3,8.9,4.5,Relative Ratio (Fold) A [5]: 13.3 Fold; Relative Ratio (Fold) C [6]: 4.5 Fold; Relative Ratio (Fold) B [7]: 8.9 Fold

Substance,Relative Ratio (Fold) A [1] [Fold],Relative Ratio (Fold) B [2] [Fold],Relative Ratio (Fold) C [3] [Fold],other results
264 (LAAAPVVIVIAP; Amino acid Sequence of aMTD264) [compound 264],18.2,12.1,6.1,Relative Ratio (Fold) A (relative cell-permeability of aMTD vs reference A (not defined)): 18.2 Fold; Relative Ratio (Fold) B (relative cell-permeability of aMTD vs reference CPP B: MTM12): 12.1 Fold; Relative Ratio (Fold) C (relative cell-permeability of aMTD vs reference CPP C: MTD85): 6.1 Fold
900 (ALVAVIAPVVAP; Amino acid Sequence of aMTD900) [compound 900],34.3,22.9,11.6,–
872 (VLAAAVLPLVVP; Amino acid Sequence of aMTD872) [compound 872],–,–,–,Relative Ratio (Fold) A [5]: 7.3 Fold; Relative Ratio (Fold) C [6]: 2.5 Fold; Relative Ratio (Fold) B [7]: 4.9 Fold
463 (AVAILVPLLAAP; Amino acid Sequence of aMTD463) [compound 463],17.6,11.7,5.9,–
5 (AAALLPVALVAP; Amino acid Sequence of aMTD5) [compound 5],–,–,–,Relative Ratio (Fold) A [5]: 3.1 Fold; Relative Ratio (Fold) C [6]: 1.0 Fold; Relative Ratio (Fold) B [7]: 2.1 Fold
887 (VLAVAPAVAVLP; Amino acid Sequence of aMTD887) [compound 887],7.7,5.1,2.6,–
583 (AVILALAPIVAP; Amino acid Sequence of aMTD583) [compound 583],–,–,–,Relative Ratio (Fold) A [5]: 7.3 Fold; Relative Ratio (Fold) C [6]: 2.4 Fold; Relative Ratio (Fold) B [7]: 4.8 Fold
321 (IVAVALPALAVP; Amino acid Sequence of aMTD321) [compound 321],97.8,65.2,32.9,–
426 (AAALAIPLAIIP; Amino acid Sequence of rPeptide ID 426) [compound 426],–,–,–,Relative Ratio to aMTD AVE [4]: 0.40
261 (LVLVPLLAAAAP; Amino acid Sequence of aMTD261) [compound 261],18.5,12.3,6.2,–
625 (ILAAAAAPLIVP; Amino acid Sequence of aMTD625) [compound 625],20.3,13.9,7.0,–
304 (AIILAPIAAIAP; Amino acid Sequence of aMTD304) [compound 304],–,–,–,Relative Ratio (Fold) A [5]: 4.4 Fold; Relative Ratio (Fold) C [6]: 1.5 Fold; Relative Ratio (Fold) B [7]: 3.0 Fold
342 (VIVALAPAVLAP; Amino acid Sequence of aMTD342) [compound 342],12.7,8.5,4.3,–
707 (IVALAVLPAVAP; Amino acid Sequence of aMTD707) [compound 707],–,–,–,Relative Ratio (Fold) A [5]: 7.3 Fold; Relative Ratio (Fold) C [6]: 2.5 Fold; Relative Ratio (Fold) B [7]: 4.9 Fold
113 (PVAVALLIAVPP; Amino acid Sequence of rPeptide ID 113) [compound 113],–,–,–,Relative Ratio to aMTD AVE [4]: 0.61
62 (VALLAPVALAVP; Amino acid Sequence of aMTD62) [compound 62],–,–,–,Relative Ratio (Fold) A [5]: 1.4 Fold; Relative Ratio (Fold) C [6]: 0.5 Fold; Relative Ratio (Fold) B [7]: 0.9 Fold
283 (AALLAPALIVAP; Amino acid Sequence of aMTD283) [compound 283],–,–,–,Relative Ratio (Fold) A [5]: 3.1 Fold; Relative Ratio (Fold) C [6]: 1.0 Fold; Relative Ratio (Fold) B [7]: 2.0 Fold
765 (AVALAVVPAVLP; Amino acid Sequence of aMTD765) [compound 765],–,–,–,Relative Ratio (Fold) A [5]: 3.8 Fold; Relative Ratio (Fold) C [6]: 1.3 Fold; Relative Ratio (Fold) B [7]: 2.2 Fold
501 (VIVALAVPALAP; Amino acid Sequence of aMTD501) [compound 501],21.5,14.4,7.2,–
